Measured values reported in patent publication US20220348876A1, “METABOLISM GUIDES DEFINITIVE LINEAGE SPECIFICATION DURING ENDOTHELIAL TO HEMATOPOIETIC TRANSITION” (Amniotics AB, priority 2019, published 2022).
Read-outs that look alike come from different tables or passages of the source.

Assays:
[1] = test system: HE cells; assay: HE cell subculture with compounds, flow cytometry; format: cell-based, human; conditions: for HE-derived CD43+GPA+ cell output: day 3 of subculture vs control, UK5099 10 μM, DCA 3 mM
Excerpt: The RB9-CB1 human iPSC line was co-cultured with mouse embryonic fibroblasts (MEFs, Millipore), passaged every six days and processed to form embryoid bodies (EBs) as described previously (Guibentif, C. et al. Cell Reports 19, 10-19 (2017)). The differentiation protocol used in this study was previously described (Ditadi, A. & Sturgeon, C. M. Methods 101, 65-72 (2016)), however, small modifications were made to induce both primitive and definitive hematopoiesis, as indicated below and in FIG. 7, a. Newly-formed EBs were first kept in SFD medium supplemented with 1 ng/ml Activin A (on days 0-2) and 3 μM CHIR99021 (on day 2 only). At day 3, media was switched to “Day 3-SP34” medium supplemented with 1 ng/ml Activin A (on day 3 only) and 3 μM CHIR99021 (on day 3 only) until day 6. On day 6, media was replaced by “Day 6-SP34” medium, until day 8. In some experiments where indicated, to obtain a higher yield of HSC-like cells, EBs were kept until day 10: in this case, EBs were plated onto Matrigel (8 μg/cm^2, Corning)-coated dishes on day 8 and kept until day 10. Media was changed every day, except on days 5 and 7. On day 8 or 10 (as indicated), EBs were singularized with 5-6 rounds of 5-minute incubations with TryPLE Express (Thermo Fisher Scientific). CD34^+ cells were selected using the human CD34 MicroBead kit (Miltenyi Biotec) and stained with CD34-FITC, CD73-PE, VECad-PerCPCy5.5, CD38-PC7, CD184-APC, CD45-AF700, CD43-APCH7, GPA-eF450, CD90-BV605 and the viability marker 7AAD in order to sort HE (CD34^+CD43^−CXCR4^−CD73^−CD90^+VECad^+), EHT (CD34^+CD43^intCXCR4^−CD73^−CD90^+VECad^+) and HSC-like (CD34^+CD43^+CD90^+CD38^−) cells, according to previously described markers (Guibentif, C. et al. Cell Reports 19, 10-19 (2017); Harris, J. M. et al. Blood 121, 2483-2493 (2013) and Schenk, T. et al. Nat Med 18, 605-611 (2012)).
Sorted HE (40,000), EHT (30,000) and HSC-like (5-20,000) cells were plated onto Matrigel (16 μg/cm^2, Corning)-coated 96-well flat bottom plates in HE medium (30) with 1% penicillin-streptomycin and kept in a humidified incubator at 37° C., 5% CO2, 4% O2 overnight. […] Media was changed and drugs were added every 2 days and cells were kept in a humidified incubator at 37° C., 5% CO2, 20% O2 for 6-7 days.
(§1) To measure proliferation, cells were processed with the CellTrace Violet (CTV) kit according to manufacturer's instructions (10-minute incubation) and fluorescence was measured on a BD LSRFortessa. […] Flow cytometry outputs were analyzed on FlowJo Software, with initial gatings on SSC-A/FSC-A, FSC-H/FSC-A, SSC-H/SSC-A and 7-AAD to exclude doublets and dead cells in all experiments.

[2] = test system: EHT cells; assay: EHT cell subculture with compounds, flow cytometry; format: cell-based, human; conditions: EHT cells, day 3; 2-DG 1 mM
Excerpt: The RB9-CB1 human iPSC line was co-cultured with mouse embryonic fibroblasts (MEFs, Millipore), passaged every six days and processed to form embryoid bodies (EBs) as described previously (Guibentif, C. et al. Cell Reports 19, 10-19 (2017)). The differentiation protocol used in this study was previously described (Ditadi, A. & Sturgeon, C. M. Methods 101, 65-72 (2016)), however, small modifications were made to induce both primitive and definitive hematopoiesis, as indicated below and in FIG. 7, a. Newly-formed EBs were first kept in SFD medium supplemented with 1 ng/ml Activin A (on days 0-2) and 3 μM CHIR99021 (on day 2 only). At day 3, media was switched to “Day 3-SP34” medium supplemented with 1 ng/ml Activin A (on day 3 only) and 3 μM CHIR99021 (on day 3 only) until day 6. On day 6, media was replaced by “Day 6-SP34” medium, until day 8. […]
as §1

[3] = test system: HSC-like cells; assay: HSC-like cell subculture with compounds, flow cytometry; format: cell-based, human; conditions: day 3, 2-DG 1 mM
[4] = test system: HE cells; assay: Lymphoid differentiation assay on OP9-DL1 stroma; format: cell-based, human; conditions: 3-day subculture in glutamine-free medium, then 35-day co-culture
Protocol: Subculture day 3 HE cells cultured in the presence of UK5099 (10 μM), DCA (3 mM), or in glutamine-free medium with DMK (1.75 mM), nucleosides (1×) or NEAAs (1×), as indicated, were collected after a 2-minute incubation at 37° C. with StemPro Accutase Cell Dissociation Reagent and seeded onto 80% confluent OP9-DL1 stroma. Cells were cultured in OP9 medium with SCF (10 ng/ml), FLT3-L (10 ng/ml), IL-2 (5 ng/ml), IL-7 (5 ng/ml, first 15 days only) and IL-15 (10 ng/ml) with passaging onto new OP9-DL1 stroma every week, as described previously (Renoux, V. M. et al. Immunity 43, 394-407 (2015)). At day 35 of co-culture, cells were analyzed on a BD LSRFortessa.

[5] = test system: HE, EHT and HSC-like cells; conditions: 100 μM FCCP, all cell types
Protocol: On days 3 and 6 of subculture, cells were collected after a 2-minute incubation at 37° C. with StemPro Accutase Cell Dissociation Reagent and stained with CD34-FITC, CD14-PE, CD33-PC7, CD11b-APC, CD45-AF700, CD43-APCH7, GPA-eF450, CD90-BV605 and the viability marker 7AAD and fluorescence was measured on a BD LSRII. To measure mitochondrial activity, cells were incubated with Tetramethylrhodamine ethyl ester (TMRE, 20 nM) for 30 minutes at 37° C. Negative controls were incubated with 100 μM FCCP for 30 minutes at 37° C., prior to TMRE staining. […] III and MFI levels—MFI FMO were calculated. […] III. To measure proliferation, cells were processed with the CellTrace Violet (CTV) kit according to manufacturer's instructions (10-minute incubation) and fluorescence was measured on a BD LSRFortessa. To measure EdU incorporation, HE cells were assessed on day 1 or 2 of subculture after 24 h EdU pulses, using Click-iT EdU Flow Cytometry Cell Proliferation Assay (Thermo Fisher Scientific, C10424), according to manufacturer's instructions. Flow cytometry outputs were analyzed on FlowJo Software, with initial gatings on SSC-A/FSC-A, FSC-H/FSC-A, SSC-H/SSC-A and 7-AAD to exclude doublets and dead cells in all experiments.

[6] = day 6 of subculture vs control, BPTES 25 μM, 1-AA 4 mM, TCP 300 nM, C646 10 μM, CP 5 μM

**Q.** For `N[C@@H]1C[C@H]1c1ccccc1` (racemic) [TCP, Tranylcypromine], which “CD43+GPA+ cell frequency following UK5099 treatment of HE cells” value [1] is on record?
**A.** no increase

**Q.** And the “HE-derived CD43+CD45+ population” value [1]?
**A.** more CD43^+CD45^+ cells

**Q.** And the “myeloid differentiation (CD43+CD45+CD33+CD11b+)” value [1]?
**A.** specifically increased

**Q.** `CC(N)[PH](=O)O` (stereo not drawn) [1-AA, 1-aminoethylphosphinic acid] was tested. Which “HE-derived CD43+GPA+ cell output” value ([1]; BPTES 25 μM, 1-AA 4 mM) did it give?
**A.** significant increase

**Q.** And the “levels of total CD43+ cells” value ([1]; day 6, treated vs untreated)?
**A.** unchanged

**Q.** And the “HE-derived CD43+CD45+ population” value [1, 6]?
**A.** significant decrease

**Q.** What does the source list for `O=CC[C@@H](O)[C@H](O)[C@H](O)CO` [2-DG, 2-Deoxy-D-glucose]?
**A.** proliferation rate (CellTrace Violet) [2]: significantly reduced; generation of the CD43+GPA+ cell population ([1]; day 3, % of the control, 2-DG 1 mM): less than 50%; CD43+ cell output from HE cells ([1]; day 3 of subculture, 2-DG 1 mM): significantly reduced; generation of the CD43+CD45+ cell population ([1]; day 6, % of the control, 2-DG 1 mM): less than 50%; proliferation rate (CellTrace Violet) [3]: significantly reduced

**Q.** With `O=C(Cc1ccccc1)Nc1nnc(CCSCCc2nnc(NC(=O)Cc3ccccc3)s2)s1` [BPTES] as the compound, how does the “HE-derived CD43+GPA+ cell output” value ([1]; BPTES 25 μM, 1-AA 4 mM) read?
**A.** sharp decline

**Q.** And the “HE-derived CD43+CD45+ population” value [1, 6]?
**A.** sharp decline

**Q.** How did the “HE-derived CD43+CD45+ population” value [1, 6] turn out when `CC1=NN(c2ccc(C(=O)O)cc2)C(=O)/C1=C\c1ccc(-c2cc(C)c(C)cc2[N+](=O)[O-])o1` [C646] was run?
**A.** did not have an effect

**Q.** How did the “HE-derived CD43+CD45+ population” value [1, 6] turn out when `O=C(c1c2ccccc2cc2ccccc12)N1CCC(N2CCC[C@@H](C(=O)N3CCOCC3)C2)CC1` [CP-640186] was run?
**A.** had the same effect as DCA

**Q.** What does the source list for `COC(=O)CCC(=O)C(=O)OC` [DMK, dimethyl-ketoglutarate]?
**A.** NK cell differentiation (CD45+CD56+) [4]: allowed efficient NK cell differentiation; CD43+GPA+ population ([1]; HE subcultures without glutamine, days 3 and 6, vs control): could not rescue; proliferation profile of HE cells (CTV) ([1]; glutamine deprivation, day 3, vs control): could not restore; percentage of CD43+ cells that have lost CD34 expression ([1]; glutamine-free DMK-treated condition vs control, day 3): significantly decreased; rescue of CD43+ cell output from HE cells ([1]; glutamine-free medium, day 3, DMK 1.75 mM): up to 60%; percentages of CD43+CD45+ cells ([1]; glutamine-free medium, day 6, compared to the control): significant increase

**Q.** With `N#CC(C#N)=NNc1ccc(OC(F)(F)F)cc1` [FCCP, Carbonyl cyanide 4-(trifluoromethoxy)phenylhydrazone] as the compound, how does the TMRE signal [5] read?
**A.** abrogated the TMRE signal

**Q.** For `CC(/C=C/C(=O)NO)=C\[C@@H](C)C(=O)c1ccc(N(C)C)cc1` [TSA, Trichostatin A], which “emergence of CD43+ hematopoietic cells” value ([1]; TSA 60 nM, day 3) is on record?
**A.** impaired the emergence

**Q.** `CC(C)c1c(C(=O)Nc2ccccc2)c(-c2ccccc2)c(-c2ccc(F)cc2)n1CC[C@@H](O)C[C@@H](O)CC(=O)O` [atorvastatin] was tested. Which “effect of DCA on CD43+CD45+ cells” value ([1]; Ato 0.5 μM in combination with DCA 3 mM) did it give?
**A.** abrogated the effect of DCA
